From patent US11084808B2, “Oxopicolinamide derivative, preparation method therefor and pharmaceutical use thereof” (Jiangsu Hengrui Medicine Co., Ltd., priority 2016, dated 2021)

test system: human blood; assay: In vitro anticoagulant effect on human blood (APTT, CT2); format: biochemical; conditions: Table 2; concentration of the compound corresponding to 2 times the APTT of the blank control; human plasma
Procedure: Test Example 2: Determination of In Vitro Anticoagulant Effect of the Compounds of the Present Invention on Human Blood
1. Experimental Materials
Plasma: Human blood was collected in blood collection tubes containing no anticoagulant, and then 3.8% sodium citrate (volume ratio 1:9) was added. The tubes were centrifuged at 2500 rpm for 10 minutes at room temperature, and then the plasma was collected and stored at −80° C.:
Reagents: APTT reagent (Activated partial thromboplastin time assay kit, SIEMENS, Art. No. B4218-1), calcium chloride solution;
Instrument: Coagulation instrument (SYSMEX, CA-500).
The divided plasma was melted at room temperature and mixed well. 10000 μM the test compound dissolved in 100% DMSO was diluted to 3000, 300, 200, 150, 75, 30, 10, 3, 0.3 μM with 100% DMSO, and the blank was 100% DMSO. The reagent, plasma, and compound were placed in corresponding positions in the coagulation instrument, and APTT detection of the compound was carried out.
Curve fitting was carried out by graphpad and CT2 was calculated, i.e., the concentration of the compound corresponding to 2 times the APTT of the blank control.

Going from `COc1cn([C@@H](CCOC2CCC2)C(=O)Nc2ccc(C(=O)O)cc2)c(=O)cc1-c1cc(Cl)ccc1C(C)=O` [Example 164, (S)-4-(2-(4-(2-acetyl-5-chlorophenyl)-5-methoxy-2-oxopyridin-1(2H)-yl)-4-cyclobutoxybutanamido)benzoic acid] to `COc1cn(C(Cc2ccn(C3CC3)n2)C(=O)Nc2ccc(C(=O)O)cc2)c(=O)cc1-c1cc(Cl)ccc1C(C)=O` (stereo not shown) [Example 93, 4-(2-(4-(2-acetyl-5-chlorophenyl)-5-methoxy-2-oxopyridin-1(2H)-yl)-3-(1-cyclopropyl-1H-pyrazol-3-yl)propanamido)benzoic acid], the “CT2 (compound concentration doubling APTT)” value falls from 6.4 µM to 2.9 µM (2.2-fold).

Compared with `COc1cn(C(Cc2ccn(C)n2)C(=O)Nc2ccc(C(=O)O)cc2)c(=O)cc1-c1cc(Cl)ccc1C(C)=O` (stereo not shown) [Example 100, 4-(2-(4-(2-acetyl-5-chlorophenyl)-5-methoxy-2-oxopyridin-(2H)-yl)-3-(1-methyl-1H-pyrazol-3-yl)propanamido)benzoic acid], `COc1cn([C@@H](Cc2cnn(C)c2)C(=O)Nc2ccc(C(=O)O)cc2)c(=O)cc1-c1cc(Cl)ccc1C(C)=O` [Example 105, (S)-4-(2-(4-(2-acetyl-5-chlorophenyl)-5-methoxy-2-oxopyridin-1(2H)-yl)-3-(1-methyl-1H-pyrazol-4-yl)propanamido)benzoic acid] is 2.1-fold higher in “CT2 (compound concentration doubling APTT)” value: 3.3 µM for the first, 6.9 µM for the second.

Going from `CCC(=O)c1ccc(Cl)cc1-c1cc(=O)n([C@@H](Cc2ccn(C3CC3)n2)C(=O)Nc2ccc(C(=O)O)cc2)cc1OC` [Example 92, (S)-4-(2-(4-(5-chloro-2-propionylphenyl)-5-methoxy-2-oxopyridin-1(2H)-yl)-3-(1-cyclopropyl-1H-pyrazol-3-yl)propanamido)benzoic acid] to `CCC(=O)c1ccc(Cl)cc1-c1cc(=O)n(C(Cc2ccccc2)C(=O)Nc2ccc(C(=O)O)cc2)cc1OC` (stereo not shown) [Example 8, 4-(2-(4-(5-chloro-2-propionylphenyl)-5-methoxy-2-oxopyridin-1(2H)-yl)-3-phenylpropanamido)benzoic acid], the “CT2 (compound concentration doubling APTT)” value rises from 1.2 µM to 6.4 µM (5.3-fold).

First: COc1cn([C@@H](Cc2cccc(C#N)c2)C(=O)Nc2ccc(C(=O)O)cc2)c(=O)cc1-c1cc(Cl)ccc1C(C)=O [Example 89, (S)-4-(2-(4-(2-acetyl-5-chlorophenyl)-5-methoxy-2-oxopyridin-1(2H)-yl)-3-(3-cyanophenyl)propanamido)benzoic acid]
Second: COc1cn([C@@H](Cc2ccccc2)C(=O)Nc2ccc(C(=O)O)cc2)c(=O)cc1-c1cc(Cl)ccc1C(C)=O [Example 5, (S)-4-(2-(4-(2-acetyl-5-chlorophenyl)-5-methoxy-2-oxopyridin-1(2H)-yl)-3-phenylpropanamido)benzoic acid]
The “CT2 (compound concentration doubling APTT)” value of the first is 2.9-fold higher: 5.7 µM for the first, 2.0 µM for the second.

`COc1cn([C@@H](Cc2ccccn2)C(=O)Nc2ccc(C(=O)O)cc2)c(=O)cc1-c1cc(Cl)ccc1C(C)=O` [Example 80, (S)-4(2-(4-(2-acetyl-5-chlorophenyl)-5-methoxy-2-oxopyridin-1(2H)-yl)-3-(pyridin-2-yl)propanamido)benzoic acid] and `COc1cn([C@@H](Cc2ccccn2)C(=O)Nc2ccc(C(N)=O)cc2)c(=O)cc1-c1cc(Cl)ccc1C(C)=O` [Example 85, (S)-4-(2-(4-(2-acetyl-5-chlorophenyl)-5-methoxy-2-oxopyridin-1(2H)-yl)-3-(pyridin-2-yl)propanamido)benzamide] are within 1.5-fold of each other in “CT2 (compound concentration doubling APTT)” value: 7.9 µM for the first, 6.5 µM for the second.

First: [2H]c1c([2H])c([2H])c(C([2H])([2H])[C@@H](C(=O)Nc2ccc(C(=O)O)cc2)n2cc(OC)c(-c3cc(Cl)ccc3C(C)=O)cc2=O)c([2H])c1[2H] [Example 181, 4-[[(2S)-2-[4-(2-acetyl-5-chloro-phenyl)-5-methoxy-2-oxo-1-pyridyl]-3,3-dideutero-3-(2,3,4,5,6-pentadeuterophenyl)propionyl]amino]benzoic acid]
Second: CCC(=O)c1ccc(Cl)cc1-c1cc(=O)n([C@@H](CCOC(C)(C)C)C(=O)Nc2ccc(C(=O)O)cc2)cc1OC [Example 108, (S)-4-(4-(tert-butoxy)-2-(4-(5-chloro-2-propionylphenyl)-5-methoxy-2-oxopyridin-1(2H)-yl)butanamido)benzoic acid]
The “CT2 (compound concentration doubling APTT)” value of the first is 1.6-fold higher: 2.3 µM for the first, 1.4 µM for the second.

First: COc1cn(C(Cc2ccn(C3CC3)n2)C(=O)Nc2ccc3nccnc3c2)c(=O)cc1-c1cc(Cl)ccc1C(C)=O (stereo not shown) [Example 96, 2-(4-(2-acetyl-5-chlorophenyl)-5-methoxy-2-oxopyridin-1(2H)-yl)-3-(1-cyclopropyl-1H-pyrazol-3-yl)-N-(quinoxalin-6-yl)propanamide]
Second: CCC(=O)c1ccc(Cl)cc1-c1cc(=O)n([C@@H](CCOC(C)(C)C)C(=O)Nc2ccc3nccnc3c2)cc1OC [Example 114, (S)-4-(tert-butoxy)-2-(4-(5-chloro-2-propionylphenyl)-5-methoxy-2-oxopyridin-1(2H)-yl)-N-(quinoxalin-6-yl)butanamide]
The “CT2 (compound concentration doubling APTT)” value of the first is 1.9-fold higher: 6.7 µM for the first, 3.6 µM for the second.

With `[2H]C([2H])([2H])C(=O)c1ccc(Cl)cc1-c1cc(=O)n([C@H](Cc2ccccc2)C(=O)Nc2ccc(C(=O)O)cc2)cc1OC` [Example 184, 4-[[(2R)-2-[4-[5-chloro-2-(2,2,2-trideuteroacetyl)phenyl]-5-methoxy-2-oxo-1-pyridyl]-3-phenyl-propionyl]amino]benzoic acid] the “CT2 (compound concentration doubling APTT)” value was >10000 µM.
In the case of `[2H]C([2H])([2H])Oc1cn([C@H](CCOC(C)(C)C)C(=O)Nc2ccc(C(=O)O)cc2)c(=O)cc1-c1cc(Cl)ccc1C(=O)CC` [Example 178, 4-[[(2R)-4-tert-butoxy-2-[4-(5-chloro-2-propionyl-phenyl)-2-oxo-5-(trideuteromethoxy)-1-pyridyl]butyryl]amino]benzoic acid], the “CT2 (compound concentration doubling APTT)” value is reported as >10000 µM.
With `COCC[C@H](C(=O)Nc1ccc2[nH]c(C(=O)O)cc2c1)n1cc(OC)c(-c2cc(Cl)ccc2C(C)=O)cc1=O` [Example 3, (R)-5-(2-(4-(2-acetyl-5-chlorophenyl)-5-methoxy-2-oxopyridin-1(2H)-yl)-4-methoxybutanamido)-1H-indole-2-carboxylic acid] the “CT2 (compound concentration doubling APTT)” value was >10000 µM.

same assay, conditions: Table 3 comparison with similar compounds in the published patents; human plasma

Going from `COc1cn([C@@H](CCOC(C)(C)C)C(=O)Nc2ccc3nccnc3c2)c(=O)cc1-c1cc(Cl)ccc1-c1nc(C)no1` [Comparative Example 2, (S)-4-(tert-butoxy)-2-(4-(5-chloro-2-(3-methyl-1,2,4-oxadiazol-5-yl)phenyl)-5-methoxy-2-oxopyridin-1 (2H)-yl)-N-(quinoxalin-6-yl)butanamide, reference compound] to `CCC(=O)c1ccc(Cl)cc1-c1cc(=O)n([C@@H](CCOC(C)(C)C)C(=O)Nc2ccc3nccnc3c2)cc1OC` [Example 114, (S)-4-(tert-butoxy)-2-(4-(5-chloro-2-propionylphenyl)-5-methoxy-2-oxopyridin-1(2H)-yl)-N-(quinoxalin-6-yl)butanamide], the “CT2 (compound concentration doubling APTT)” value falls from 13.1 µM to 2.9 µM (4.5-fold).

same assay, conditions: from Table 3

For `CCC(=O)c1ccc(Cl)cc1-c1cc(=O)n([C@@H](CCOC(C)(C)C)C(=O)Nc2ccc3nccnc3c2)cc1OC` [Example 114, (S)-4-(tert-butoxy)-2-(4-(5-chloro-2-propionylphenyl)-5-methoxy-2-oxopyridin-1(2H)-yl)-N-(quinoxalin-6-yl)butanamide], the “CT2 value ratio of Example 114 and comparative Example 2” value was 4.5 times.

test system: not listed separately; assay: Pharmacokinetics assay in rats after intragastrical administration; format: in vivo, Sprague-Dawley (SD) rats; conditions: intragastric, 2 mg/kg
Excerpt: Test Example 3. Pharmacokinetics Assay of the Compounds of the Present Invention
Rats were used as test animals. […] The pharmacokinetic behavior of the compounds of the present invention was studied and evaluated in rats.
56 healthy adult Sprague-Dawley (SD) rats, half male and half female, were purchased from SINO-BRITSH SIPPR/BK LAB. ANIMAL LTD., CO, with License No.: SCXK (Shanghai) 2008-0016.
2.3 Preparation of the Test Compounds
A certain amount of the test compound was weighed, and added with 5% by volume of DMSO, 5% by volume of Tween 80 and 90% normal saline to prepare a 0.2 mg/mL colorless, clear and transparent solution.
After an overnight fast, SD rats were intragastrically administered at a dose of 2.0 mg/kg and an administration volume of 10.0 mL/kg.
Example 111, Example 114, Example 160. Example 171 and Comparative Example 1. Blood (0.2 mL) was taken from the orbital sinus before administration and at 0.5, 1.0, 2.0, 4.0, 6.0, 8.0, 11.0 and 24.0 hours after administration. […]
The content of the test compound in the plasma of rats after intragastric administration of different concentrations of the drug was determined: 25 μL of rat plasma at each time after administration was taken and added with 30 μL (100 ng/mL) of the internal standard solution of camptothecin and 200 μL of acetonitrile, shaken vertically for 5 minutes, and centrifuged for 10 minutes (4000 rpm). […]

In the case of `COc1cn([C@@H](Cc2cccnc2)C(=O)Nc2ccc(C(=O)O)cc2)c(=O)cc1-c1cc(Cl)ccc1C(C)=O` [Example 84, (S)-4-(2-(4-(2-acetyl-5-chlorophenyl)-5-methoxy-2-oxopyridin-1(2H)-yl)-3-(pyridin-3-yl)propanamido)benzoic acid], the “AUC difference versus Comparative Example 1” value is reported as 7.5 times.

For `COc1cn([C@@H](Cc2cccnc2)C(=O)Nc2ccc(C(=O)O)cc2)c(=O)cc1-c1cc(Cl)ccc1C(C)=O` [Example 84, (S)-4-(2-(4-(2-acetyl-5-chlorophenyl)-5-methoxy-2-oxopyridin-1(2H)-yl)-3-(pyridin-3-yl)propanamido)benzoic acid], the “Cmax difference versus Comparative Example 1” value was 6.9 times.
